{"source": "patent USRE37525E1", "about": "“Method for treating infectious respiratory diseases” (priority 1991, dated 2002)", "key": {"[1]": {"system": "parainfluenza virus type 3 (PIV3)", "assay_type": "in vivo, cotton rats (Sigmodon hispidus)", "excerpt": "(§1) Inbred cotton rats (Sigmodon hispidus) were obtained from the colony of Virion Systems, Inc. Adult animals, free from specific rodent pathogens, were used. Animals were housed in large polycarbonate rat cages with a bedding of hardwood chips, and fed a diet of standard rat chow and water. Adult animals ranging from 1 to 8 months of age were used. No age-related differences in response to infection or treatment were seen.\n(§2) Hydrocortisone acetate was selected as the prototypical corticosteroid for the anti-inflammatory studies. Cotton rats were infected (Day 0) by intranasal instillation of PIV3 (10^6 pfu/animal) or Ad-5 (10^9 pfu/animal). Animals were anesthetized with methoxyflurane, and the inoculating virus was delivered in a volume of 0.1 ml/100 gm body weight of the animal. On Day 3, animals were anesthetized with methoxyflurane, and hydrocortisone acetate (50 mg/ml) was instilled intranasally in a volume of 0.1 ml/100 gm body weight. The same treatment with hydrocortisone acetate was repeated once per day on Days 4 and 5. For purposes of comparison, control animals were infected concurrently on Day 0, but received no treatment on Days 3, 4, or 5. On Day 6, all animals were euthanized by carbon dioxide intoxication.\nThese included dexamethasone acetate (8 mg/ml) and triamcinolone acetonide (40 mg/ml). Of course, other corticosteroids or anti-inflammatory agents known to one of ordinary skill in the art could also be used.\n(§3) Lungs were removed from the thorax and inflated through the trachea with neutral buffered formalin. Histologic sections were made by following standard procedures and stained with hematoxylin and eosin (H&E).\n(§4) Topical administration was accomplished by anesthetizing the animals, holding them in a vertical posture, and instilling a solution containing corticosteroid onto the nares. A total volume of 0.1 ml/100 gm body weight was used. […] However, for human administration it is desirable to use a small particle aerosol delivered by a device that could be triggered by inhalation or used synchronously with the inhalation phase of ventilation for patients on a ventilator. Such a device could deliver aerosol from powder (spinhaler) or liquid. Since many patients, especially young infants and debilitated adults, may have diminished respiratory inhalation vigor, it is important to synchronize aerosol generation with inhalation. This could be accomplished by having inhalation trigger the aerosol delivery to the airway (nasal prongs, oral tube, etc.). The trigger mechanism could include negative pressure from inhalation, chest movement, or electrical triggering synchronized with diaphragmatic contraction. Electrical leads used to monitor respirations could be used to synchronize aerosol generation to be triggered at the first initiation of diaphragmatic contraction and respiration. Any form of aerosol generator is suitable if aerosol delivery is synchronized with inhalation and appropriate particle size is consistently generated.\n(§5) Therapeutic efficacy is determined by comparing two parameters in treated versus control animals: (1) the percentage of alveoli on a single H&E-stained coronal section of lungs containing interstitial and/or intraalveolar pathology; and (2) the percentage of bronchioles, on the same section of lungs, affected by peribronchiolar lymphocytic infiltration.\nTriamcinolone acetonide was selected as the prototypical corticosteroid for the combined anti-infective and anti-inflammatory studies. […] Therefore, the use of triamcinolone acetonide is merely by example of a general property of corticosteroids. Cotton rats were infected (Day 0) by intranasal instillation of PIV3 (10^6 pfu/animal) or RSV (10^5 pfu/animal). Animals were anesthetized with methoxyflurane, and the inoculating virus was delivered in a volume of 0.1 ml/100 gm body weight of the animal. […]"}, "[2]": {"system": "respiratory syncytial virus (RSV)", "assay_type": "in vivo", "settings": "for % Bronchioles: group mean, Table 8, triamcinolone acetonide 4 mg/kg, ribavirin 20 mg/kg, topical Days 3, 4, 5, Day 6; for effect on pulmonary pathology (in words): topical treatment Days 3, 4, 5", "protocol": "(§6) Triamcinolone acetonide was selected as the prototypical corticosteroid for the combined anti-infective and anti-inflammatory studies. […] Cotton rats were infected (Day 0) by intranasal instillation of PIV3 (10^6 pfu/animal) or RSV (10^5 pfu/animal). Animals were anesthetized with methoxyflurane, and the inoculating virus was delivered in a volume of 0.1 ml/100 gm body weight of the animal. On Day 3, animals were anesthetized with methoxyflurane, and treated by intranasal instillation of anti-infective agent or a combination of anti-infective agent and corticosteroid, in a volume of 0.1 ml/100 gm body weight. The same treatment was repeated once per day on Days 4 and 5. For purposes of comparison, control animals were infected concurrently on Day 0, but received no treatment on Days 3, 4, or 5. On Day 6, the time of maximum pulmonary pathology in infected, untreated animals, all animals were euthanized by carbon dioxide intoxication.\n(§7) Three experiments were performed using combined therapy: (1) anti-PIV3 antibody (100 mg/kg) and triamcinolone acetonide (4 mg/kg) were used to treat PIV3 infection; (2) anti-RSV antibody (25 mg/kg) and triamcinolone acetonide (4 mg/kg) were used to treat RSV infection; (3) ribavirin (20 mg/kg) and triamcinolone acetonide (4 mg/kg) were used to treat RSV infection. All agents were administered topically as described above in “Drug Testing”.\nHistopathology studies. After animals were sacrificed by carbon dioxide intoxication, the chest cavity was opened, and the heart and lungs removed intact. The trachea was cannulated with a blunt needle, the lungs inflated with 10% neutral buffered formalin to their normal volume, and the trachea tied with a suture. Coronal sections of the lungs were cut at a thickness of 4 microns, and stained with hematoxylin and eosin.\nStandard published pathologic criteria for the identification and scoring of bronchiolitis and interstitial pneumonia were used (Porter, 1991 J. Virol. 65:103-111). Briefly, bronchiolitis is the accumulation of inflammatory cells, mostly or exclusively lymphocytes, in and around bronchioles. There may be accompanying damage to the epithelial cells, including loss of cilia or cell death. Interstitial pneumonia is thickening of the alveolar walls, usually accompanied by infiltration of inflammatory cells into the alveolar septae. Bronchiolitis was quantitated by examining each bronchiole within the lung section (generally 40-70 bronchioles) and scoring for the presence or absence of lymphocytic infiltration. The percentage of affected bronchioles was then calculated. Interstitial pneumonia was quantitated by estimating the percentage of affected alveolar tissue in the lung section. A minimum of four animals were examined for each time point. Arithmetic means of pathology scores were calculated, and differences between treatment groups evaluated by the Student t-test of summary data. In each experiment, uninfected animals served as sentinels to rule out the presence of adventitious agents."}, "[3]": {"system": "parainfluenza virus type 3 (PIV3)", "assay_type": "in vivo", "settings": "topical treatment Days 3, 4, 5", "protocol": "as §6, §7\n(§8) Cotton rats were challenged to induce infection in the following manner. The frozen virus (usually at a concentration of 10^5 pfu/ml) was thawed and then immediately instilled (0.05 ml/nostril) into anesthetized cotton rats. […] Lungs were removed from the animal, homogenized in tissue culture fluid, and cultured on HEp2 monolayers. The amount of virus was then quantified.\n(§9) A single pool of purified human IgG, with known neutralizing antibody titer, was used with each virus throughout the experiments, to minimize experimental variability. […] Once determined, this dose was used in all subsequent experiments.\n(§10) Titrations of virus in pulmonary tissues. Animals were sacrificed by carbon dioxide intoxication. After the thoracic wall was removed aseptically, the lungs were dissected from the heart, and homogenized in a TenBroeck tissue grinder in 10 parts (v:w) of Hanks, balanced salt solution, modified for stabilizing virus by the addition of 0.218 M sucrose, 4.4 mM glutamate, 3.8 mM KH2PO4 and 7.2 mM K2HPO4. […] After four days incubation at 37° C. under methylcellulose overlay, the cells were stained with crystal violet in glutaraldehyde solution, and the plaques counted. Viral titers were expressed as a geometric mean, plus or minus the standard error, for all animals (a minimum of four) at a given time point. […]"}, "[4]": {"system": "respiratory syncytial virus (RSV)", "assay_type": "in vivo", "settings": "topical treatment Days 3, 4, 5", "protocol": "as §6, §7, §8, §9, §10"}, "adenovirus type 5 (Ad-5)": {"system": "adenovirus type 5 (Ad-5)", "assay": "Pulmonary pathology (histology) in Ad-5-infected cotton rats", "assay_type": "in vivo", "excerpt": "as §1, §2, §3, §4, §5"}, "[5]": {"settings": "group mean, Experiment 5, dexamethasone acetate 8 mg/ml or triamcinolone acetonide 40 mg/ml intranasal Days 3-5, Day 6"}, "[6]": {"settings": "group mean, Table 6, triamcinolone acetonide 4 mg/kg, anti-PIV3 IgG 100 mg/kg, topical Days 3, 4, 5, Day 6"}, "[7]": {"settings": "mean, Exps. 1, 2, 6 and 7 combined"}, "[8]": {"settings": "range over experiments, treated vs control"}, "[9]": {"settings": "individual animals (Exps. 3, 4)"}}, "note": "Values joined by “and” are separate entries in the source; they are usually repeats but may differ in a detail not shown here. Equal entries are not always repeated. “Also recorded” adds a separate entry of the source. Where two headings read alike, the source gives them in different places."}
{"molecule": "CC1(C)O[C@@H]2C[C@H]3[C@@H]4CCC5=CC(=O)C=C[C@]5(C)[C@@]4(F)[C@@H](O)C[C@]3(C)[C@]2(C(=O)CO)O1", "note": "[Triamcinolone, triamcinolone acetonide]", "values": [{"measurement": "reduction of alveolar inflammation compared to control values", "setting": "[1]; Experiment 5", "value": 80, "unit": "%"}, {"measurement": "reduction of bronchiolar inflammation compared to control values", "setting": "[1]; Experiment 5", "value": 89, "unit": "%"}, {"measurement": "% Alveoli", "setting": "[1]; [5]", "value": "24% and 24 (p < 0.01) %"}, {"measurement": "% Bronchioles", "setting": "[1]; [5]", "value": "9% and 9 (p < 0.001) %"}, {"measurement": "% Alveoli", "setting": "[1]; [6]", "value": "10 (p < 0.05) % and 10%"}, {"measurement": "% Bronchioles", "setting": "[1]; [6]", "value": "6 (p < 0.001) % and 6%"}, {"measurement": "% Bronchioles", "setting": "[2]", "value": "0 (p < 0.001) %"}, {"measurement": "effect on pulmonary pathology (in words)", "setting": "[2]", "value": "dramatically reduced; also recorded: reduced pulmonary pathology"}, {"measurement": "effect on viral titers / viral shedding (in words)", "setting": "[3]", "value": "increased and prolonged viral shedding; also recorded: prolonged and increased viral shedding"}, {"measurement": "effect on viral titers / viral shedding (in words)", "setting": "[4]", "value": "prolonged and increased viral shedding"}]}
{"molecule": "CC(=O)OCC(=O)[C@@]1(O)CC[C@H]2[C@@H]3CCC4=CC(=O)CC[C@]4(C)[C@H]3[C@@H](O)C[C@@]21C", "note": "[hydrocortisone acetate, Hydrocortisone acetate]", "values": [{"measurement": "% Bronchioles", "setting": "[1]; group mean per experiment (Exps. 1, 2, 6, 7), hydrocortisone acetate 50 mg/ml, 0.1 ml/100 gm intranasal Days 3, 4, 5, histology Day 6", "value": "9% and 15%"}, {"measurement": "% Alveoli", "setting": "[1]; [7]", "value": 24, "unit": "%"}, {"measurement": "% Bronchioles", "setting": "[1]; [7]", "value": 15, "unit": "%"}, {"measurement": "net reduction in disease, alveolar inflammation", "setting": "[1]; [8]", "value": "27-56%"}, {"measurement": "net reduction in disease, bronchiolar inflammation", "setting": "[1]; [8]", "value": "77-85%"}, {"measurement": "exacerbated disease in treated animals", "setting": "[1]; topical hydrocortisone acetate", "value": "no evidence of exacerbated disease"}, {"measurement": "% Alveoli", "setting": "adenovirus type 5 (Ad-5); [9]", "value": "10% (2×) and 5% and 9% and 50% and 40% (2×) and 20%"}, {"measurement": "% Bronchioles", "setting": "adenovirus type 5 (Ad-5); [9]", "value": "18% and 16% and 21% and 8% and 26% and 37% and 42% and 50%"}, {"measurement": "net reduction in disease, alveolar inflammation", "setting": "adenovirus type 5 (Ad-5); [8]", "value": "46-79%"}, {"measurement": "net reduction in disease, bronchiolar inflammation", "setting": "adenovirus type 5 (Ad-5); [8]", "value": "57-77%"}, {"measurement": "exacerbated disease in treated animals", "setting": "adenovirus type 5 (Ad-5); topical hydrocortisone acetate", "value": "no evidence of exacerbated disease"}]}
{"molecule": "CC(=O)OCC(=O)[C@@]1(O)[C@H](C)C[C@H]2[C@@H]3CCC4=CC(=O)C=C[C@]4(C)[C@@]3(F)[C@@H](O)C[C@@]21C", "note": "[Dexamethasone, dexamethasone acetate]", "values": [{"measurement": "reduction of alveolar inflammation compared to control values", "setting": "[1]; Experiment 5", "value": 28, "unit": "%"}, {"measurement": "reduction of bronchiolar inflammation compared to control values", "setting": "[1]; Experiment 5", "value": 75, "unit": "%"}, {"measurement": "% Alveoli", "setting": "[1]; [5]", "value": 50, "unit": "%"}, {"measurement": "% Bronchioles", "setting": "[1]; [5]", "value": 21, "unit": "%"}, {"measurement": "% Bronchioles", "setting": "[1]; individual animals, Experiment 5", "value": "29% and 21% and 14%"}]}
{"molecule": "NC(=O)c1ncn([C@@H]2O[C@H](CO)[C@@H](O)[C@H]2O)n1", "note": "[Ribavirin, 1-beta-D-ribofuranosyl-1,2,4,-triazole-3-carboxamide]", "values": [{"measurement": "% Bronchioles", "setting": "[2]", "value": "48 (N.S.) %"}, {"measurement": "therapeutic effectiveness against RSV infection (in words)", "setting": "[2]; ribavirin 20 mg/kg topical, cotton rat", "value": "minimally effective"}, {"measurement": "effect on pulmonary pathology (in words)", "setting": "[2]", "value": "nor affected pulmonary pathology"}, {"measurement": "effect on pulmonary pathology (in words)", "setting": "[2]; listed as ribavirin", "value": "no effect on pulmonary pathology"}, {"measurement": "effect on viral titers / viral shedding (in words)", "setting": "[4]", "value": "neither effected a significant reduction in pulmonary RSV titers"}, {"measurement": "effect on viral titers / viral shedding (in words)", "setting": "[4]; listed as ribavirin", "value": "did not reduce viral titers"}]}
